From PubChem BioAssay (NCI)
Values joined by “and” are separate entries in the source; they are usually repeats but may differ in a detail not shown here. Equal entries are not always repeated.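 Briefly, cells in 96-well plates were exposed to five compound concentrations for 48 h, and endpoints were estimated by linear interpolation. The concentration for 50% growth inhibition is given as GI50. TGI: total growth inhibition.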

How the values were obtained:
Test in all cases: DTP human tumour cell line panel, 48 h
[1] = test system: K-562 leukemia
[2] = test system: MCF7 breast
[3] = test system: COLO 205 colon
[4] = test system: SN12C renal
[5] = test system: MDA-MB-231 breast
[6] = test system: NCI-H23 lung
[7] = test system: OVCAR-3 ovarian
[8] = test system: SF-295 CNS
[9] = test system: HT29 colon
[10] = test system: U251 CNS

SMILES | TGI [1] | TGI [2] | TGI [3] | TGI [4] | TGI [5] | TGI [6] | TGI [7] | TGI [8] | TGI [9] | TGI [10] | GI50 [1] [µM] | GI50 [2] [µM] | GI50 [3] [µM] | GI50 [4] [µM] | GI50 [5] [µM] | GI50 [6] [µM] | GI50 [7] [µM] | GI50 [8] [µM] | GI50 [9] [µM] | GI50 [10] [µM]
CCCCCCCCCCCNC=O | 86.1 µM | > 100 µM | > 100 µM | > 100 µM | > 100 µM | > 100 µM | > 100 µM | > 100 µM | > 100 µM | > 100 µM | – | – | – | – | – | – | – | – | – | –
O=c1cc(-c2ccccc2)[nH]c2c1CCCC2 | > 100 µM | > 100 µM | 6.42 µM | > 100 µM | > 100 µM | > 100 µM | 5.02 µM | 7.61 µM | > 100 µM | > 100 µM | 0.85 | 1.14 | 1.99 | 13.4 | 6.67 | 3.39 | 1.81 | 1.43 | 2 | 4.54
NC(N)=NC(N)=Nc1ccc(C(=O)O)cc1 | > 100 µM | > 100 µM | > 100 µM | > 100 µM | > 100 µM | > 100 µM | > 100 µM | > 100 µM | > 100 µM | > 100 µM | – | – | – | – | – | – | – | – | – | –
CC1CCCC(C#N)(NOC2=NCCN2)C1 (centres undefined) | 61.5 µM | > 100 µM | > 100 µM | > 100 µM | > 100 µM | > 100 µM | > 100 µM | > 100 µM | > 100 µM | 78.7 µM | 17.4 | 42.2 | 61.3 | 26.5 | 19.4 | 35.3 | 43 | 31 | 92.2 | 23.4
Nc1nc(Cl)nc2c1ncn2C1OC(CO)C(O)C1F (centres undefined) | > 100 µM | > 100 µM | > 100 µM | – | > 26.5 µM | 0.626 µM | > 100 µM | 13.5 µM | > 100 µM | > 100 µM | 0.426 | 0.163 | 0.0951 | < 0.0439 | 4.93 | 0.02 | > 100 | 1.68 | 0.445 | 0.213
N#CC1=C(N)NC(N2CCOCC2)=NC12Nc1ccccc1O2 (centres undefined) | > 100 µM | 64.2 µM | > 100 µM | > 100 µM | > 100 µM | > 100 µM | 84.8 µM | > 100 µM | > 100 µM | > 100 µM | 39.2 | 23.3 | 67.7 | 96.4 | 89.9 | 29.5 | 25.1 | 38.5 | 47.2 | 45.8
FC(F)c1ncc(-c2ccc(C(F)(F)F)cc2)c(NC2CCCCCC2)n1 | > 10 µM | > 10 µM | > 10 µM | > 10 µM | > 10 µM | > 10 µM | > 10 µM | > 10 µM | > 10 µM | > 10 µM | > 10 | > 10 | > 10 | > 10 | > 10 | > 10 | > 10 | > 10 | > 10 | > 10
CC(=O)c1c[nH]c2ccc(-c3ccnc(Nc4ccc(NC(=O)C5CCCC5)c(CN5CCOCC5)c4)n3)cc12 | > 100 µM | 0.174 µM | 0.0679 µM | 3.97 µM | 0.294 µM | 0.364 µM | 0.678 µM | 0.611 µM | 2.25 µM | – | 0.041 | 0.0304 | 0.0194 | 0.0301 | 0.0315 | 0.0344 | 0.0267 | 0.0397 | 0.0226 | 0.0316
CN1CCN(CCCOc2ccc3nc(Nc4ccc(F)c(F)c4)ccc3c2)CC1 | 5.25 µM | 3.53 µM | 3.69 µM | 11.8 µM | 3.57 µM | 13.2 µM | 6.37 µM | 3.65 µM | 2.32 µM | 3.64 µM | 1.37 | 1.66 | 1.72 | 2.97 | 1.63 | 3.15 | 2.11 | 1.61 | 0.822 | 1.69
CC12CCC(=O)C(O1)C1C(=O)c3ccc4c(ccc5ccccc54)c3C(=O)C12 (centres undefined) | 7.3 µM | 13.4 µM | > 59.1 µM | 10.3 µM | 6.64 µM | 8.35 µM | 2.64 µM | 3 µM | > 100 µM | 35.6 µM | 1.72 | 3.89 | 2.13 | 5.42 | 2.14 | 4.15 | 1.2 | 1.46 | 13.2 | 18.8
Cc1nc(NS(=O)(=O)c2ccc(NCN3C(=O)c4ccccc4C3=O)cc2)oc1C | > 100 µM | > 100 µM | > 100 µM | > 100 µM | > 100 µM | > 100 µM | > 100 µM | > 100 µM | > 100 µM | > 100 µM | > 100 | > 100 | > 100 | > 100 | > 100 | > 100 | > 100 | > 100 | > 100 | > 100
COC(=O)CC1(O)C=CC(=O)C=C1 | > 100 µM | 15.2 µM | 17.8 µM | 37.6 µM | 6.51 µM | 10.9 µM | 13.7 µM | 17.7 µM | 17.6 µM | 18.5 µM | – | – | – | – | – | – | – | – | – | –
CC(C)=Cc1cc(CCC/C(C)=C/Cc2c(O)cc(C)c(C(=O)O)c2O)co1 | > 100 µM | > 100 µM | > 100 µM | > 100 µM | > 100 µM | > 100 µM | > 100 µM | > 100 µM | > 100 µM | > 100 µM | – | – | – | – | – | – | – | – | – | –
Cc1c(Nc2nccc3cc(CN4CC[C@@H](O)C4)cnc23)cccc1-c1cccc(-c2nc3cc(CN4CC[C@@H](C(=O)O)C4)cc(C#N)c3o2)c1C | > 100 µM | 4.26 µM | > 100 µM | > 100 µM | 26.2 µM | 27.1 µM | > 100 µM | > 100 µM | 4.64 µM | 26.8 µM | 1.44 | 1.52 | 18.7 | 20.1 | 7.45 | 12 | 14.8 | 3.98 | 2.09 | 12.1
O=C1OCC2=C1C(c1cccc(C(F)(F)F)c1)c1cc3c(cc1N2CCO)OCCO3 (centres undefined) | > 33.3 µM | > 33.3 µM | 2.48 µM | > 33.3 µM | > 33.3 µM | > 33.3 µM | > 33.3 µM | > 33.3 µM | > 33.3 µM | > 33.3 µM | 0.881 | 1.09 | 0.868 | 2.21 | 1.7 | 1.78 | 1.24 | 0.895 | 1.09 | 1.36
COc1ccc(Nc2ncnc3ccc(-c4cncc(NS(C)(=O)=O)c4)cc23)cc1Cl | 18.7 µM | 8.01 µM | 4.47 µM | 18.7 µM | 15.3 µM | 15 µM | 4.78 µM | 10.1 µM | 6.93 µM | 13.6 µM | 3.2 | 1.63 | 1.8 | 3.09 | 2.71 | 2.66 | 1.66 | 2.51 | 2.07 | 2.81
Cc1nn(C)c2ncnc(N/N=C/c3cccc(O)c3O)c12 | > 100 µM | > 100 µM | > 78.7 µM | > 100 µM | 39.5 µM | > 68.2 µM | > 100 µM | 49.9 µM | > 100 µM | > 100 µM | 0.387 | 0.594 | 1.11 | 0.481 | 0.486 | 0.774 | 0.356 | 2.73 | 3.94 | 0.513
CCC[CH2][Sn]([CH2]CCC)([CH2]CCC)/[C](=C/[Si](C)(C)c1ccccc1)c1ccc2c(c1)OCO2 | 73.9 µM | 53.7 µM | 39 µM | 39 µM | 32.8 µM | 92.9 µM | 40.2 µM | 49.6 µM | 55.3 µM | 40 µM | 22.9 | 20.7 | 18.7 | 19.1 | 14.8 | 25.6 | 19.8 | 26.8 | 19.2 | 18.8
COc1cc(S(=O)(=O)Nc2nc(-c3ccc(N4C(=O)C(C)SC4c4ccccc4O)cc3)cs2)ccc1Cl (centres undefined) | > 100 µM | > 100 µM | > 100 µM | > 100 µM | > 100 µM | > 100 µM | > 100 µM | > 100 µM | > 100 µM | > 100 µM | 33.4 | 49 | 40.6 | 47.4 | 32.6 | 42.2 | 35.6 | 31.8 | 56.5 | 32.8
Cc1ccc(S(=O)(=O)n2cc([C@@]3(O)C[C@H](CSC#N)OC3=O)c3ccccc32)cc1 | 23.6 µM | 18.1 µM | 33.6 µM | 24.9 µM | 22.4 µM | > 100 µM | 21 µM | 69.2 µM | 55 µM | 32.7 µM | 6.2 | 2.8 | 6.42 | 7.97 | 8.44 | 26.5 | 8.81 | 16.1 | 11.9 | 12.8
Cc1ccc2oc(=O)c3c(O)c4cccc(OC5OC(C)C6O[C@@H](c7ccccc7)OC6C5OC5OC(C)C(O)C(O)C5O)c4c4oc(=O)c1c2c34 (some centres undefined) | 2.6 µM | 2.48 µM | – | 1.76 µM and 4.73 µM | 1.35 µM | 0.276 µM | 3.96 µM | 0.523 µM and 1.56 µM | 5.12 µM | 1.16 µM and 1.58 µM | 0.0708 | – | 0.0807 | 0.251 | – | 0.0307 | – | 0.0449 | – | 0.0825
CC(C)[P+](c1ccccc1)(c1ccccc1)c1ccccc1 | > 100 µM | > 100 µM | 16 µM | > 100 µM | > 100 µM | – | > 100 µM | 36.6 µM | > 100 µM | > 100 µM | 2.4 | 3.69 | 3.87 | 11.5 | 10.6 | – | 4.49 | 7.41 | 5.8 | 4.11
NC1=NC(SCc2ccccc2CCl)c2ncn(Cc3ccccc3CCl)c2N1 (centres undefined) | 10.2 µM | 19.9 µM | 3.49 µM | 9.85 µM | 11.4 µM | 3.45 µM | 2.99 µM | 5 µM | 4.01 µM | 2.82 µM | 2.35 | 2.17 | 1.64 | 2.76 | 2.9 | 1.61 | 1.32 | 1.98 | 1.88 | 1.45
COc1cc(/C=C/C(=O)CC(=O)/C=C/c2cc(OC)c(O)c(OC)c2)cc(OC)c1O | 25 µM and > 100 µM | 25 µM and > 100 µM | 25 µM and 40.2 µM | 23.7 µM and > 100 µM | 25 µM and 32.6 µM | 25 µM and 35.7 µM | 17.3 µM and > 100 µM | 25 µM and > 100 µM | 25 µM and > 100 µM | 25 µM and 36.1 µM | – | 19.6 | 19.3 | 57.3 | 9.37 | 12.7 | 18.6 | 32.3 | 26.3 | –
COc1ccc(CSC2=C(C#N)C(=O)NC3(CCCCC3)S2)cc1 | > 100 µM | > 100 µM | > 100 µM | > 100 µM | > 100 µM | > 100 µM | > 82.1 µM | > 100 µM | > 100 µM | > 100 µM | – | – | – | – | – | – | – | – | – | –
C1CSC[C@H]2COC[C@@H](CSCCS1)S2 | > 100 µM | > 100 µM | > 100 µM | > 100 µM | > 100 µM | > 100 µM | > 100 µM | > 100 µM | > 100 µM | > 100 µM | – | – | – | – | – | – | – | – | – | –
COc1ccc(C2NN=C3c4ccccc4CCC32)cc1 (centres undefined) | > 100 µM | 11.5 µM | 22.5 µM | 79.5 µM | > 100 µM | 93.3 µM | 14.9 µM | 13.2 µM | 12.5 µM | > 100 µM | 2.87 | 2.56 | 7.8 | 15.4 | 17.8 | 12.6 | 3.38 | 2.48 | 2.26 | 5.92
